Assay results from US20120195986A1, “PREVENTING OR TREATING PERIODONTAL DISEASES BY HERBAL EXTRACT” (priority 2009, published 2012).

Tested on: male ICR mice
Assay: In vivo anti-inflammatory activity (croton oil-induced ear inflammation, ear thickness)
Design: species or system mouse
Details: 20 mg/kg orally (positive control)
Protocol: In order to evaluate in vivo anti-inflammatory activity of the combined extract prepared in Preparation Examples 4 to 7 showing improved osteoblast proliferation and anti-inflammatory activity in the above Experimental Examples 1 and 2 and single extract in Examples 1.1 and 1.2, Hee et. al.'s method was used for the evaluation (Kor J. Pharmacogn. 25(4), 363˜367, 1994, Arch. Pharm. Res. 16(1), 18˜24, 1993.), and the result is shown in Table 2. In Table 2, 20 mg/kg was administered for positive control (Indomethacin, Sigma) and 200 mg/kg was administered for the test groups orally. Dose dependent anti-inflammatory activity was evaluated for the Example 5 with the highest activity, and the result is shown in Table 3. The thickness of ear was measured by using a thickness gauge (model H, Peacock, Japan) for male ICR mice (6 weeks, Samtaco Biokorea) before treating with the formulation. The control and test drug was administered orally, and the inflammation was induced 1 hour after the administration by smearing 10 uL of inflammation inducing material (2.5% croton oil, sigma) dissolved in acetone on the inner and outer ear after immobilizing the mice. In 5 hours, the mice were sacrificed by cervical dislocation and the thickness of the right ear was measured.

SMILES: COc1ccc2c(c1)c(CC(=O)O)c(C)n2C(=O)c1ccc(Cl)cc1 [Indomethacin]
- Anti-inflammatory activity (%): 50%
